Structures are written as SMILES. Read-outs that look alike come from different tables or passages of the source.

The target of experiment [1] is T1, SOS1 catalytic domain (residues 564-1049) (Homo sapiens, UniProt Q07889).
T1 sequence (Q07889 564-1049): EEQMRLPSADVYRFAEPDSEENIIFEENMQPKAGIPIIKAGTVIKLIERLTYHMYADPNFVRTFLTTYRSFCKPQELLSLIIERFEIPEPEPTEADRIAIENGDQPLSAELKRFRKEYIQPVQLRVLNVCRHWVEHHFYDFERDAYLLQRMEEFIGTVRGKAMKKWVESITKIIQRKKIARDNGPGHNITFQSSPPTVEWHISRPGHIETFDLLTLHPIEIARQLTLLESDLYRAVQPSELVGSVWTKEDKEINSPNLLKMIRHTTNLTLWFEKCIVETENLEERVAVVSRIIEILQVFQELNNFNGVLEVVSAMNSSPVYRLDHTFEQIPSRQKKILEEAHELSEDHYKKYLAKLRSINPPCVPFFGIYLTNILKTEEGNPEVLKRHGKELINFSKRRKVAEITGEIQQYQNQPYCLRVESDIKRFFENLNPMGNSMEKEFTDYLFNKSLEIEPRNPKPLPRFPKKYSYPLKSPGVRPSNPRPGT
Kind of experiment: Mode of Action Assay: inhibition of SOS1 nucleotide exchange activity (SOS1 TR-FRET IC50 Assay).
Experimental: The purpose of this assay was to characterize the inhibitory activity of compounds on SOS1 nucleotide exchange of KRAS. Data was reported as IC50 values based on the TR-FRET signal.
Note—the following protocol describes a procedure for monitoring the inhibition of SOS1 nucleotide exchange activity of wild-type KRAS in response to a compound of the invention.
The SOS1/compound mixture was incubated at room temperature with constant mixing on an orbital shaker for 20 minutes to allow the reaction to reach equilibrium. […] This mixture was prepared immediately before addition to the SOS1/compound mixture to prevent intrinsic nucleotide exchange. Then 5 μL of the pre-incubated SOS1/compound mixture and 7.5 μL of the KRAS mixture were added sequentially in a 384-well low volume black round bottom plate and incubated at room temperature with constant shaking for 30 minutes. Time-resolved fluorescence was measured on a PerkinElmer Envision plate reader.
Three replicates were performed for each compound. Data were normalized by the following: (Positive control−Sample signal)/(Positive control−negative control)*100. The data were fit using a four-parameter logistic fit.

In experiment [2] the test system is PC-9 cells (EGFR Ex19Del). Kind of experiment: Potency Assay: pERK (SOS1 pERK IC50 Assay, AlphaLISA SureFire Ultra p-ERK1/2). The settings on record: Homo sapiens, read-out: SOS1 pERK IC50. The experiment is classed as cell-based. The protocol: The purpose of this assay is to measure the ability of test compounds to inhibit SOS1 function in cells. SOS1 activates RAS proteins by catalyzing the conversion of RAS GDP to RAS GTP in response to receptor tyrosine kinase activation. […] The procedure described below measures the level of cellular pERK in response to test compounds in PC-9 cells (EGFR Ex19Del).
PC-9 cells were grown and maintained using media and procedures recommended by the ATCC. On the day prior to compound addition, cells were plated in 384-well cell culture plates (40 μL/well) and grown overnight in a 37° C., 5% CO2 incubator. Test compounds were prepared in 10, 3-fold dilutions in DMSO, with a top concentration of 10 mM. On the day of the assay, 40 nL of test compound was added to each well of cell culture plate using an Echo550 liquid handler (LabCyte). Concentrations of test compound were tested in duplicate with highest test concentration being 10 μM. After compound addition, cells were incubated for 1 hour at 37° C., 5% CO2. Following incubation, culture medium was removed and cells were washed once with phosphate buffered saline.
Cellular pERK level was determined using the AlphaLISA SureFire Ultra p-ERK1/2 Assay Kit (PerkinElmer). Cells were lysed in 25 μL lysis buffer, with shaking at 600 RPM at room temperature for 15 minutes. Lysate (10 μL) was transferred to a 384-well Opti-plate (PerkinElmer) and 5 μL acceptor mix was added. The plate was centrifuged at 1000 RPM for 1 minute, and incubated in the dark for 2 hours. Following this incubation, 5 μL of donor mix was added, the plate was sealed and centrifuged at 1000 RPM for 1 minute, and the mixture was incubated for 2 hours at room temperature. Signal was read on an Envision plate reader (PerkinElmer) using standard AlphaLISA settings. Analysis of raw data was carried out in Excel (Microsoft) and Prism (GraphPad). Signal was plotted vs. the decadal logarithm of compound concentration, and IC50 was determined by fitting a 4-parameter sigmoidal concentration response model.

[3] abbreviates: PC-9 cells (EGFR Ex19Del), 1 hour incubation, AlphaLISA p-ERK1/2.

As to `C[C@@H](Nc1nc(Cl)nc2c1CN(C(=O)[C@]13COC[C@H]1CS(=O)(=O)C3)CC2)c1cc(N)cc(C(F)(F)F)c1` [Example 215], the IC50 in experiment [1] and in experiment [2] (setting [3]) was over 1 µM throughout.

Turning to `C[C@@H](Nc1ncnc2c1CC(N1CCOCC1)C(=O)N2C)c1cc(N)cc(C(F)(F)F)c1` (stereo partly drawn) [Example 502, 4-{[(1R)-1-[3-amino-5-(trifluoromethyl)phenyl]ethyl]amino}-8-methyl-6-(morpholin-4-yl)-5H,6H,7H,8H-pyrido[2,3-d]pyrimidin-7-one], the IC50 in experiment [1] is under 1 µM; in experiment [2] (setting [3]), over 1 µM.

Consider `COC1COCCC1CC(=O)N1Cc2nc(Cl)nc(N[C@H](C)c3cc(N)cc(C(F)(F)F)c3)c2C1` (some centres unmarked) [Example 258], for which the IC50 in experiment [1] and in experiment [2] (setting [3]) was under 1 µM each time.

In turn, `COc1ccc(C2(C(=O)N3CCc4nc(Cl)nc(N[C@H](C)c5cc(N)cc(C(F)(F)F)c5)c4C3)COC2)cc1` [Example 192] returned a 50% inhibitory concentration (IC50) in experiment [1] of over 1 µM.

`C[C@@H](Nc1nc(Cl)nc2c1CN(C(=O)N1CCOCC1)C2)c1cccc(C(F)(F)COC2CC2)c1` [Example 531, [2-chloro-4-[[(1R)-1-[3-[2-(cyclopropoxy)-1,1-difluoro-ethyl]phenyl]ethyl]amino]-5,7-dihydropyrrolo[3,4-d]pyrimidin-6-yl]-morpholino-methanone]: the IC50 in experiment [1] was under 1 µM; in experiment [2] (PC-9, 1 h), under 1 µM.

As for `C[C@@H](Nc1nc(Cl)nc2c1CN(C(=O)N1CCNc3ccccc31)C2)c1cccc(C(F)(F)F)c1` [Example 372], the concentration for half-maximal inhibition (IC50) in experiment [1] and in experiment [2] (setting [3]) was under 1 µM in each case.

Turning to `C[C@@H](Nc1nc(Cl)nc2c1CN(C(=O)N1CCOCC1)C2)c1csc(C(F)F)c1F` [Example 481, 2-chloro-N-[(1R)-1-[5-(difluoromethyl)-4-fluorothiophen-3-yl]ethyl]-6-(morpholine-4-carbonyl)-5H,6H,7H-pyrrolo[3,4-d]pyrimidin-4-amine], the IC50 in experiment [1] is over 1 µM; in experiment [2] (PC-9, 1 h), over 1 µM.

Take `C[C@@H](Nc1nc(Cl)nc2c1CN(C(=O)N1CCOCC1)C2)c1cccc(C(F)(F)F)n1` [Example 473, 2-chloro-6-(morpholine-4-carbonyl)-N-[(1R)-1-[6-(trifluoromethyl)pyridin-2-yl]ethyl]-5H,6H,7H-pyrrolo[3,4-d]pyrimidin-4-amine]: the IC50 in experiment [1] and in experiment [2] (setting [3]) was over 1 µM throughout.

For `C[C@@H](Nc1nc(Cl)nc2c1CN(C(=O)C13COCC(CO1)C3)C2)c1cc(N)cc(C(F)(F)F)c1` (some centres unmarked) [Example 273], the IC50 in experiment [1] and in experiment [2] (setting [3]) was under 1 µM each time.

In the case of `COCC1(C(=O)N2CCc3nc(Cl)nc(N[C@H](C)c4cc(N)cc(C(F)(F)F)c4)c3C2)CC1` [Example 213], the half-inhibitory concentration (IC50) in experiment [1] and in experiment [2] (setting [3]) was over 1 µM each time.

Turning to `CC(Nc1nc(Cl)nc2c1CN(C(=O)N1CCOCC1)C2)c1cccc2c1C[C@@H](CO)C2` (stereo in doubt) [Example 465, (2-chloro-4-(((R)-1-((S)-2-(hydroxymethyl)-2,3-dihydro-1H-inden-4-yl)ethyl)amino)-5,7-dihydro-6H-pyrrolo[3,4-d]pyrimidin-6-yl)(morpholino)methanone], the IC50 in experiment [1] and in experiment [2] (setting [3]) was over 1 µM throughout.

On to `C[C@@H](Nc1nc(Cl)nc2c1CN(C(=O)[C@H]1[C@@H]3CNC[C@@H]31)C2)c1cc(N)cc(C(F)(F)F)c1` [Example 269], for which the figures for the IC50 in experiment [1] and in experiment [2] (setting [3]) were under 1 µM and over 1 µM, respectively.

Take `C[C@@H](Nc1nc(Cl)nc2c1CN(C(=O)C1CCCN1c1ncccn1)CC2)c1cc(N)cc(C(F)(F)F)c1` (some centres unmarked) [Example 200]: the IC50 in experiment [1] and in experiment [2] (setting [3]) was over 1 µM throughout.

As for `CC(O)c1cccc(C(C)Nc2ncnc3c2CN(C(=O)N2CCOCC2)C3)c1` (centres unmarked) [Example 516], the IC50 in experiment [1] and in experiment [2] (setting [3]) was over 1 µM in each case.

Consider `C[C@@H](Nc1nc(Cl)nc2c1CN(C(=O)C1(C#N)CCC1)CC2)c1cc(N)cc(C(F)(F)F)c1` [Example 202], for which the IC50 in experiment [1] and in experiment [2] (setting [3]) was over 1 µM each time.

For `COc1c(C(F)F)cccc1C(C)Nc1nc(Cl)nc2c1CN(C(=O)N1CCOCC1)C2` (centres unmarked) [Example 494], the IC50 in experiment [1] and in experiment [2] (setting [3]) was over 1 µM in each case.

Take `C[C@@H](Nc1nc(Cl)nc2c1CN(C(=O)C13OCCCC1C3(F)F)CC2)c1cc(N)cc(C(F)(F)F)c1` (some centres unmarked) [Example 214]: the IC50 in experiment [1] and in experiment [2] (setting [3]) was over 1 µM throughout.

Turning to `C[C@@H](Nc1nc(Cl)nc2c1CN(C(=O)C1(N3CCOCC3)CCC1)CC2)c1cc(N)cc(C(F)(F)F)c1` [Example 207], the IC50 in experiment [1] was over 1 µM.

Regarding `C[C@@H](Nc1nc(Cl)nc2c1CN(C(=O)C1CN(C)CCO1)C2)c1cccc(C(F)(F)F)c1` (some centres unmarked) [Example 277], the IC50 in experiment [2] (setting [3]) was over 1 µM.

On to `C[C@@H](Nc1nc(Cl)nc2c1CN(C(=O)C1(c3ncccn3)CC1)CC2)c1cc(N)cc(C(F)(F)F)c1` [Example 191], for which the half-inhibitory concentration (IC50) in experiment [1] was over 1 µM.

Consider `Cc1cc([C@@H](C)Nc2nc(Cl)nc3c2CN(C(=O)N2CCOCC2)C3)cc(C(F)(F)F)c1` [Example 515, 2-chloro-N-[(1R)-1-[3-methyl-5-(trifluoromethyl)phenyl]ethyl]-6-(morpholine-4-carbonyl)-5H,6H,7H-pyrrolo[3,4-d]pyrimidin-4-amine], for which, in experiment [1], the IC50 is over 1 µM.

The compound `C[C@@H](Nc1nc(Cl)nc2c1CC1(CC2)OCCO1)c1cc(N)cc(C(F)(F)F)c1` [Example 514, N-[(1R)-1-[3-amino-5-(trifluoromethyl)phenyl]ethyl]-2′-chloro-7′,8′-dihydro-5′H-spiro[1,3-dioxolane-2,6′-quinazoline]-4′-amine] showed an IC50 in experiment [1] of over 1 µM.

As to `C[C@@H](Nc1nc(Cl)nc2c1CN(C(=O)N1CCOc3ccncc31)C2)c1cccc(C(F)(F)F)c1` [Example 373], the IC50 in experiment [1] is under 1 µM.

`COC1(C(=O)N2CCc3nc(Cl)nc(N[C@H](C)c4cc(N)cc(C(F)(F)F)c4)c3C2)CCOC1` (some centres unmarked) [Example 198] registered an IC50 in experiment [1] of over 1 µM.

`C[C@@H](Nc1nc(Cl)nc2c1CCN(CC1CCOC1)CC2)c1cc(N)cc(C(F)(F)F)c1` (stereo partly drawn) [Example 113, N-[(1R)-1-[3-amino-5-(trifluoromethyl)phenyl]ethyl]-2-chloro-7-(oxolan-3-ylmethyl)-5H,6H,7H,8H,9H-pyrimido[4,5-d]aze-pin-4-amine] had an IC50 in experiment [1] of over 1 µM.

In the case of `C[C@@H](Nc1nc(Cl)nc2c1CN(S(=O)(=O)c1ccccn1)CC2)c1cc(N)cc(C(F)(F)F)c1` [Example 459], the half-inhibitory concentration (IC50) in experiment [2] (setting [3]) was under 1 µM.

`C[C@@H](Nc1nc(Cl)nc2c1CN(C(=O)c1ncccc1C(F)(F)F)CC2)c1cc(N)cc(C(F)(F)F)c1` [Example 253] came in with a 50% inhibitory concentration (IC50) in experiment [1] of over 1 µM.

Regarding `COc1ccc(C(=O)N2CCc3nc(Cl)nc(N[C@H](C)c4cc(N)cc(C(F)(F)F)c4)c3C2)nc1OC` [Example 244], the IC50 in experiment [2] (setting [3]) was over 1 µM.

For `C[C@@H](Nc1nc(Cl)nc2c1CN(C(=O)[C@]13CCC[C@H]1C3(F)F)CC2)c1cc(N)cc(C(F)(F)F)c1` [Example 217], in experiment [1], the IC50 was over 1 µM.

In the case of `C[C@@H](Nc1nc(Cl)nc2c1CN(C(=O)N1CCOCC1)C2)c1cc(F)cc(C(F)(F)F)c1` [Example 511, 2-chloro-N-[(1R)-1-[3-fluoro-5-(trifluoromethyl)phenyl]ethyl]-6-(morpholine-4-carbonyl)-5H,6H,7H-pyrrolo[3,4-d]pyrimidin-4-amine], the half-maximal inhibitory concentration (IC50) in experiment [1] is over 1 µM.

Take `C[C@@H](Nc1nc(Cl)nc2c1CN(C(=O)c1cccc(C(F)(F)F)n1)CC2)c1cc(N)cc(C(F)(F)F)c1` [Example 251]: the 50% inhibitory concentration (IC50) in experiment [2] (setting [3]) is over 1 µM.

These data come from patent publication US20230096028A1, “BICYCLIC HETEROCYCLYL COMPOUNDS AND USES THEREOF” (Revolution Medicines, Inc., priority 2019, published 2023).
